Measured values from patent US20260103760A1, “ANALYTIC METHOD FOR DIAGNOSING OVARIAN CANCER RESISTANT TO PACLITAXEL” (CHA UNIVERSITY INDUSTRY-ACADEMIC COOPERATION FOUNDATION, priority 2022, published 2026).

System: Taxol-resistant ovarian cancer cell line SKOV3/TAX compared to ovarian cancer cell line SKOV3
Test: Cell viability of SKOV3 and SKOV3/TAX cultured in medium containing Taxol (cell counting kit-8)
Assay type: cell-based
Conditions: medium containing 30 μM Taxol, FIG. 1
Experimental: Ovarian cancer cell line SKOV3 (HTB-77™, Sigma-Aldrich, St. Louis, MO, USA) was cultured in a DMEM medium (31800-022, Gibco, Grand Island, NY, USA) containing 5 μM Taxol, 10% FBS and 1% Antibiotic-Antimycotic (15240062, Gibco, Grand Island, NY, USA) at 37° C. in a 5% CO2 incubator for 1 month. The cells were harvested and cultured continuously in a 5% CO2 incubator at 37° C., in a medium containing 10 µM Taxol for 2 months, in a medium containing 20 µM Taxol for 2 months, and in a medium containing 30 μM Taxol for 2 months (total for 7 months), and then the viable cell line was isolated. The isolated cell line was named SKOV3/TAX and the following experiments were performed using as an ovarian cancer cell line resistant to Taxol. In order to compare Taxol resistance, the SKOV3 and SKOV3/TAX cells were cultured at 5,000 cells per well in a 96-well plate in a medium containing Taxol at a concentration of 30 μM per well. Then, cell viabilities were measured at 0, 24, and 48 hours with a cell counting kit-8 (CK04-11, Dojindo, Rockville, MD, USA).

SMILES: CC(=O)O[C@H]1C(=O)[C@@]2(C)[C@H]([C@H](OC(=O)c3ccccc3)[C@]3(O)C[C@H](OC(=O)[C@H](O)[C@@H](NC(=O)c4ccccc4)c4ccccc4)C(C)=C1C3(C)C)[C@]1(OC(C)=O)CO[C@@H]1C[C@@H]2O [Taxol, paclitaxel]
- cell viability of SKOV3/TAX compared to SKOV3 (increase) (24 hours, 5,000 cells per well): approximately 1.67 fold
- cell viability of SKOV3/TAX compared to SKOV3 (increase) (48 hours, 5,000 cells per well): approximately 2.40 fold
